Where “and” joins values, the source holds several entries; their conditions need not be identical. Equal values may be shown once. Each block holds one molecule with its values, some of them ahead of it.
Tests used:
[1] = target: T1, hT1R2/R3 (Homo sapiens, UniProt Q7RTX0+Q8TE23); assay: Screening for sweet enhancers: sucrose EC50 shift, FLIPR calcium assay; format: cell-based; details: sucrose EC50 without enhancer / with enhancer; test compound 50 μM; hT1R2/R3-HEK293 Ga15 cells; Tables A and B
T1 construct: expressed in transfected cells; host or cells: HEK293 cells expressing Ga15 (hT1R2/R3-HEK293 Ga15)
T1 sequence (Q8TE23 20-839): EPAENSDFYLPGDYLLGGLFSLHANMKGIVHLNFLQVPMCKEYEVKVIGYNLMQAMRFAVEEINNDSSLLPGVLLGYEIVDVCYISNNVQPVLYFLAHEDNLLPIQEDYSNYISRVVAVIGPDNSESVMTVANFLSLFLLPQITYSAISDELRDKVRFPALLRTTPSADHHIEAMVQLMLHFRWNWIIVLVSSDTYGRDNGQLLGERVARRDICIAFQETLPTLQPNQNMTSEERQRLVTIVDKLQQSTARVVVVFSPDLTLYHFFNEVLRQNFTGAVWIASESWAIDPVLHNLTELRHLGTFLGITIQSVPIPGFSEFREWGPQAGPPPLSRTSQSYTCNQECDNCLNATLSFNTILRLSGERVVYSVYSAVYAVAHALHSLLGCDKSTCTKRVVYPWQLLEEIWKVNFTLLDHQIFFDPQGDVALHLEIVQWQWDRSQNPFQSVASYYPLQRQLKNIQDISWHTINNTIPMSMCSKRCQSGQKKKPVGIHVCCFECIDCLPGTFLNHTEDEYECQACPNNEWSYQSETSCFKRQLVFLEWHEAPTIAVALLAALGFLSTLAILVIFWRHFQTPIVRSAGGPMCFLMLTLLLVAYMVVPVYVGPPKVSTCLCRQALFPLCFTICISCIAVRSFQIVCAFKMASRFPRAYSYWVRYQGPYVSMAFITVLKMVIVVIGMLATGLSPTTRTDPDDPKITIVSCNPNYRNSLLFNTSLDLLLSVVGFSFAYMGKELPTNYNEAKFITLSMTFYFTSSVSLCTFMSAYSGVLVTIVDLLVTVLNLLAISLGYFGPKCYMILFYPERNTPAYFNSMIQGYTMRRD
T1 sequence (Q7RTX0 21-852): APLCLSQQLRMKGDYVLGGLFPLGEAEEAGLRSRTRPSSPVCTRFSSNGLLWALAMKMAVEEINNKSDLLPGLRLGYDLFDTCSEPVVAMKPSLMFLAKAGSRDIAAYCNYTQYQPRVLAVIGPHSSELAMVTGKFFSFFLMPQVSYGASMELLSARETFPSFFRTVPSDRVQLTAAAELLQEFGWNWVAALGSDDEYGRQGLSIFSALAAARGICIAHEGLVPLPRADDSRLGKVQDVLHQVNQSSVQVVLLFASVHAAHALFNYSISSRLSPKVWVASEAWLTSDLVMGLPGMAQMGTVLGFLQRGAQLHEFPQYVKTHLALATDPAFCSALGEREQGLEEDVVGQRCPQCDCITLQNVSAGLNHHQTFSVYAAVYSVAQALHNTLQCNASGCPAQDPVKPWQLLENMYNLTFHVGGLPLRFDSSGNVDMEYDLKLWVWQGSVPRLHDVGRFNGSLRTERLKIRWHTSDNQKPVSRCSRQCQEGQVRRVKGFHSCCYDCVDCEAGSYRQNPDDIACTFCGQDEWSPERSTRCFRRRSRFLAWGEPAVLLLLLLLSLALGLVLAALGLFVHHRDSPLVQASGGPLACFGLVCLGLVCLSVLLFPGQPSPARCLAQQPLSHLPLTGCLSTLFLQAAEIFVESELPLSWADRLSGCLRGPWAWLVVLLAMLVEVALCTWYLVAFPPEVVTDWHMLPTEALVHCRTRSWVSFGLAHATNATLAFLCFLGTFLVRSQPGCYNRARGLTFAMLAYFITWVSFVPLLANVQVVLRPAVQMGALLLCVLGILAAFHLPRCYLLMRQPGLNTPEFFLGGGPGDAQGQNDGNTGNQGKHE
Method: hT1R2/R3-HEK293 Ga15 cells were seeded in 384-well-clear bottom plates (Fisher) at a density of ˜32,000 cells/well and grown overnight. On the day of the experiment, hT1R2/R3-HEK293 Ga15 were loaded with the calcium indicator Fluo3AM ([…]) (Invitrogen, Carlsbad, Calif.) in D-PBS (Invitrogen, Carlsbad, Calif.) using a Multidrop. Cells were incubated for 1 hour at room temperature and excess dye was washed out with D-PBS using an EMBLA cell washer (Molecular Devices, Sunnyvale, Calif.), leaving a residual volume of […]. […] After 30 minutes of rest time at room temperature, Fluo3AM-loaded cell plates, and the sweetener/compound plate mixture were loaded into a Fluorometric Imaging Plate Reader (FLIPR) (Molecular Devices, Sunnyvale, Calif.). Imaging was performed using a 480 nm excitation and a 535 emission and was initiated with the acquisition of the baseline fluorescence for a period of 7 seconds. […] Raw fluorescence counts were then normalized in each well (using custom made data import software) by calculating delta F/f values (maximum fluorescent count obtained after stimulation—minimal fluorescent count obtained before stimulation/minimal fluorescent count obtained before stimulation). EC50s were determined using a non-linear regression algorithm (GraphPad PRISM, San Diego, Calif.), where the Hill slope, bottom asymptotes and top asymptotes were allow to vary. […]

[2] = test system: human panelists; assay: Sweet flavor enhancement, human panelists, scaling test; format: in vivo; set-up: key: 0 = no sweetness, 15 = sweetness equal to 15% sucrose; details: 0-15 line scale
Excerpt: Test samples containing experimental compounds were compared to a dose-response curve for perceived sweetness intensity of sweeteners (sucralose, sucrose, fructose and other sweeteners) concentrations to determine equivalent sweetness intensity.
A group of eight or more panelists tasted solutions including sweeteners at various concentrations, as well as the experimental compound both with and without added sweetener. Panelists then rated sweetness intensity of all samples on a structured horizontal line scale, anchored from 0 to 15, where 0 equals no sweetness and 15 equals equivalent sweetness to a 15% sucrose sample. Scores for sweetness intensity were averaged across panelists. Then using the average scores and/or equation of the line for the sweetener dose-response curve, equivalent sweetness concentrations were determined for the samples containing experimental compounds.
Subjects had been previously familiarized with the key attribute taste and were trained to use the 0 to 15 point line scale. Subjects refrained from eating or drinking (except water) for at least 1 hour prior to the test. Subjects ate a cracker and rinsed with water several times to clean the mouth.
Sweetener solutions are provided at a wide range of concentrations such as 100 ppm, 200 ppm, 300 ppm, 400 ppm, and 500 ppm for sucralose, or between 0% and 12% for sucrose or fructose, in order to create a dose-response curve. Samples containing experimental compound were prepared both alone and in a 100 ppm sucralose solution or a 6% sucrose or fructose solution. All samples were made up in low sodium buffer pH 7.1. In order to aid dispersion, solutions can be made up in 0.1% ethanol.
The solutions were dispensed in 20 ml volumes into 1 oz. sample cups and served to the subjects at room temperature. All samples were presented in randomized counterbalanced order to reduce response bias. Further, two sessions of testing may be used to check panel precision.
Subjects tasted each sample individually and rate sweetness intensity on the line scale prior to tasting the next sample. All samples were expectorated. Subjects may retaste the samples but can only use the volume of sample given. Subjects must rinse with water between samples. Eating an unsalted cracker between samples may be required depending on the samples tasted.
The scores for each sample were averaged across subjects and standard error was calculated. The dose-response curve was plotted graphically, and this may be used to ensure the panel is rating accurately; i.e., increasing the concentration of sucralose should correspond to increased average scores for sweetness. A 2-way ANOVA (factors being samples and panelists) and multiple comparison tests (such as Tukey's Honestly Significant Difference test) can be used to determine differences among samples and/or panelists. A 3-way ANOVA, with sessions as the third factor, can be used to determine if there is any difference in the ratings between sessions.

[3] = test system: human panelists; assay: Sweet flavor enhancement, human panelists, paired comparison test; format: in vivo
Method: Test samples containing experimental compounds are presented in pairs to the panelist and they are asked to determine which of the sample is sweeter. A group of 10-16 or more panelists participated in each test. Subjects refrained from eating or drinking (except water) for at least 1 hour prior to the test. Subjects rinsed with water several times to clean the mouth.
All samples are prepared with ethanol to ensure dispersion of the compound in solution. This includes samples without compound; all solutions are balanced for 0.1% ethanol.
Samples are also prepared with low sodium buffer (pH 7.1) in place of water. Buffer contains 0.952 g of KCl, 5.444 g of Na2HPO4, and 0.952 g of KH2PO4 in 40 L of DIUF water. Sample volumes are usually 20 ml.
In one paired comparison test, the panelist is presented with two different samples and asked to identify the sample which is sweeter. The samples within a paired comparison test are presented in a randomized, counterbalanced order. Panelists have up to a 1 minute delay between taste tests to clear the mouth of any tastes.
Binomial probability tables are used to determine the probability of the correct number of responses occurring for each test at alpha=0.05

- EC50 Ratio (50 μM) [1]: 3.4
Structure (SMILES): CCCNC(=O)C(C)(C)COc1cccc2nc(CC)c(C(=O)O)c(N)c12 [Compound Q, 4-amino-5-(2,2-dimethyl-3-oxo-3-(propylamino)propoxy)-2-ethyl-quinoline-3-carboxylic acid]

Structure (SMILES): CCC(CC)COc1cccc2nc(C)c(C(=O)O)c(N)c12 [Example 22, 4-amino-5-(2-ethylbutoxy)-2-methylquinoline-3-carboxylic acid]
- melting point: 145 to 151 °C

- melting point: 195 to 198 °C
Structure (SMILES): Cc1nc2cccc(OCC(C)(C)NC(=O)c3ccncc3)c2c(N)c1C(=O)O [Example 24, 4-amino-5-(2-(isonicotinamido)-2-methylpropoxy)-2-methylquinoline-3-carboxylic acid]

- melting point: 195 to 198 °C
Structure (SMILES): Cc1nc2cccc(OCC(C)(C)NC(=O)c3cccc(O)c3)c2c(N)c1C(=O)O [Example 25, 4-amino-5-(2-(3-hydroxybenzamido)-2-methylpropoxy)-2-methylquinoline-3-carboxylic acid]

- melting point: 220 to 221.5 °C
Structure (SMILES): Cc1nc2cccc(OC3CCCCC3)c2c(N)c1C(=O)O [Example 36, 4-amino-5-(cyclohexyloxy)-2-methylquinoline-3-carboxylic acid]

Structure (SMILES): Cc1nc2cccc(OCC(C)C)c2c(N)c1C(=O)O [Example 41, 4-amino-5-isobutoxy-2-methylquinoline-3-carboxylic acid]
- melting point: 203.7 °C

Structure (SMILES): OC[C@H]1O[C@@](CO)(O[C@H]2O[C@H](CO)[C@@H](O)[C@H](O)[C@H]2O)[C@@H](O)[C@@H]1O [Sucrose, sucrose]
- Average sweetness ([2]; 6% sucrose alone (reference)): 6.6 and 6.5 and 6.3 and 6.2 and 6.1 and 6.4
- Average sweetness ([2]; 8% sucrose alone (reference)): 8.2 and 8.1 and 7.8 and 7.9 and 8.4
- Average sweetness ([2]; 9% sucrose alone (reference)): 9.2 and 8.4 and 8.6 and 8.5
- Average sweetness ([2]; 10% sucrose alone (reference)): 9.7 and 9.5 and 9.2 and 9.0 and 9.6 and 10.3
- Average sweetness ([2]; 12% sucrose alone (reference)): 10.9
- Sample selected as sweeter by panelists, Total ([3]; pair: 1% sucrose vs LSB + 25 uM Compound A, total 45): 44
- Sample selected as sweeter by panelists, Total ([3]; pair: 1% sucrose vs LSB + 25 uM Compound I3, total 42): 36
- Sample selected as sweeter by panelists, Total ([3]; pair: 1% sucrose vs LSB + 33 uM Compound C1, total 22): 18
- Sample selected as sweeter by panelists, Total ([3]; pair: 1% sucrose vs LSB + 36.5 uM Compound B4, total 45): 44
- Sample selected as sweeter by panelists, Total ([3]; pair: 1% sucrose vs LSB + 45 uM Compound J, total 48): 47
- Sample selected as sweeter by panelists, Total ([3]; pair: 10% sucrose vs 6% sucrose + 25 uM Compound A, total 48): 28
- Sample selected as sweeter by panelists, Total ([3]; pair: 10% sucrose vs 6% sucrose + 36.5 uM Compound B4, total 26): 10
- Sample selected as sweeter by panelists, Total ([3]; pair: 10% sucrose vs 6% sucrose + 45 uM Compound J, total 42): 17
- Sample selected as sweeter by panelists, Total ([3]; pair: 12% sucrose vs 6% sucrose + 25 uM Compound I3, total 42): 18
- Sample selected as sweeter by panelists, Total ([3]; pair: 12% sucrose vs 6% sucrose + 33 uM Compound C1, total 30): 17

Structure (SMILES): OC[C@H]1O[C@H](O[C@]2(CCl)O[C@H](CCl)[C@@H](O)[C@@H]2O)[C@H](O)[C@@H](O)[C@H]1Cl [sucralose]
- Average sweetness ([2]; 50 ppm sucralose alone (reference)): 3.9
- Average sweetness ([2]; 100 ppm sucralose alone (reference)): 5.9 and 5.5
- Average sweetness ([2]; 200 ppm sucralose alone (reference)): 8.7 and 9.1
- Average sweetness ([2]; 300 ppm sucralose alone (reference)): 10.2

— patent publication US9902737B2, “Sweet flavor modifier” (SENOMYX, INC., priority 2010, dated 2018)
